According to patent publication US20050014846A1, “Ambroxol for the treatment of tinnitus” (Boehringer Ingelheim International GmbH, priority 2003, published 2005):
pIC50: −log10 of the molar value.

What was measured:
human GluR1/2 receptors = target: T1, human GluR1/2 receptors (Homo sapiens, UniProt P42261+P42262); assay: Patch-clamp of glutamate-induced membrane currents in HEK 293 cells expressing GluR1/2; format: cell-based; conditions: recombinant human GluR1/2, 1 mM glutamate for 1 s at holding potential −80 mV
T1 construct: expressed in transfected cells; host or cells: HEK 293
Description: Ionotropic glutamate receptors of the AMPA subtype are also essential for the excitatory neurotransmission. […] HEK 293 cells which expressed functionally recombinant human GluR1/2 receptors were electrophysiologically investigated by the Patch-Clamp method ([…]). The administration of 1 mM glutamate (for 1 s at a holding potential of −80 mV) induced membrane currents which were inhibited by the joint administration of ambroxol.

[1] = tested on: centrally expressed neuronal sodium channels; conditions: neuronal sodium channel subtypes, Weiser and Wilson, Mol. Pharmacol. 62, 433-438, 2002, read-out: half-maximum inhibition of centrally expressed channels; cited from earlier work

T1 sequence (P42261 19-906): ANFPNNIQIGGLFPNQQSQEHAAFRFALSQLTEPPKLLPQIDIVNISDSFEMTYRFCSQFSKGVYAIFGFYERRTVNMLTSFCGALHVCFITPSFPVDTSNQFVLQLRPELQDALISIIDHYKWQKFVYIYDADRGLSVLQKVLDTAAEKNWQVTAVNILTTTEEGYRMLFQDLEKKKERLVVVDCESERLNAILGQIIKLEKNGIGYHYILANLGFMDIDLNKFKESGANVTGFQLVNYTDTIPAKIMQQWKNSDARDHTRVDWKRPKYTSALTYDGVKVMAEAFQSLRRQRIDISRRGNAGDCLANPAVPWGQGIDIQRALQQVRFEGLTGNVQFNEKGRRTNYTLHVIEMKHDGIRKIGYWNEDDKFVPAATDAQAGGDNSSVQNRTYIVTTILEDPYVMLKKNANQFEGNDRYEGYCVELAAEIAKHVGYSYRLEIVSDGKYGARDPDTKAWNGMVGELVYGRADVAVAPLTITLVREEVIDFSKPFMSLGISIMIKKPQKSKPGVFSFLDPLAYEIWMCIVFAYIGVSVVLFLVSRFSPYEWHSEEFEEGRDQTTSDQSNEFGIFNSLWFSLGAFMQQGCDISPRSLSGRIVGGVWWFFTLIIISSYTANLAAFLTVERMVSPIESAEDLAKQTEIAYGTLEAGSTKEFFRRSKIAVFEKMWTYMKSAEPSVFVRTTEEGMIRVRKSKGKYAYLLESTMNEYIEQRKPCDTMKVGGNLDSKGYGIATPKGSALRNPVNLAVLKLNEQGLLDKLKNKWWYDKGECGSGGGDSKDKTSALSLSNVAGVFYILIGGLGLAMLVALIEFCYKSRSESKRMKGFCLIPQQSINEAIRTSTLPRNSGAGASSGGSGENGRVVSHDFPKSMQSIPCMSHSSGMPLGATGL
T1 sequence (P42262 22-883 limits assumed): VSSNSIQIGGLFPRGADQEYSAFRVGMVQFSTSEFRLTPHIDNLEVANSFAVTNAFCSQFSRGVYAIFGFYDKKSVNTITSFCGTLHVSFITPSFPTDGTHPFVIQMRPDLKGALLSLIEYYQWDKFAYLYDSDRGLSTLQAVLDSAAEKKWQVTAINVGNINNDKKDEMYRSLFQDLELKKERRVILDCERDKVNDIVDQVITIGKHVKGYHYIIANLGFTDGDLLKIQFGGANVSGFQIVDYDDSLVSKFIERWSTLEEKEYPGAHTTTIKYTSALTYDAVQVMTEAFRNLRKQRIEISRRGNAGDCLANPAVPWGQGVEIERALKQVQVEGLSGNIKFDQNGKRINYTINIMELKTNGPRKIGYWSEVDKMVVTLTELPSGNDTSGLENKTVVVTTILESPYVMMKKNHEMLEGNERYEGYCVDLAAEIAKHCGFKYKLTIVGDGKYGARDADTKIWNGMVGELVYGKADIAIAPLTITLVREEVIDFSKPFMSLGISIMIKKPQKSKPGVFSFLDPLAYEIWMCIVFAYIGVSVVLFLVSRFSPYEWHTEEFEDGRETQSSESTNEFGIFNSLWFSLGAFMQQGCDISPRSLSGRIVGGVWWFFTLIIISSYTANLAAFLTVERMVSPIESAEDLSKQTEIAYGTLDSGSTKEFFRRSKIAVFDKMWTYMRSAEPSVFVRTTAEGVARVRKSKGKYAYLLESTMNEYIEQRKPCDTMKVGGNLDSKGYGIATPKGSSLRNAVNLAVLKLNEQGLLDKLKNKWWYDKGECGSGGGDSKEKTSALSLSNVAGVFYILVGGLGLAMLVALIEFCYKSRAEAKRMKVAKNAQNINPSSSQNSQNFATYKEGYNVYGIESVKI

concentrations inhibiting glutamate-induced membrane currents (human GluR1/2 receptors): 30 to 1000 µM
SMILES: Nc1c(Br)cc(Br)cc1CN[C@H]1CC[C@H](O)CC1 [ambroxol, trans-4-(2-amino-3,5-dibromobenzylamino)cyclohexanol]
pIC50 [1]: 3.95
